In experiment [1] the target is T1, Serine/threonine-protein kinase Nek3 (Homo sapiens) (UniProt P51956).
T1 sequence (whole entry): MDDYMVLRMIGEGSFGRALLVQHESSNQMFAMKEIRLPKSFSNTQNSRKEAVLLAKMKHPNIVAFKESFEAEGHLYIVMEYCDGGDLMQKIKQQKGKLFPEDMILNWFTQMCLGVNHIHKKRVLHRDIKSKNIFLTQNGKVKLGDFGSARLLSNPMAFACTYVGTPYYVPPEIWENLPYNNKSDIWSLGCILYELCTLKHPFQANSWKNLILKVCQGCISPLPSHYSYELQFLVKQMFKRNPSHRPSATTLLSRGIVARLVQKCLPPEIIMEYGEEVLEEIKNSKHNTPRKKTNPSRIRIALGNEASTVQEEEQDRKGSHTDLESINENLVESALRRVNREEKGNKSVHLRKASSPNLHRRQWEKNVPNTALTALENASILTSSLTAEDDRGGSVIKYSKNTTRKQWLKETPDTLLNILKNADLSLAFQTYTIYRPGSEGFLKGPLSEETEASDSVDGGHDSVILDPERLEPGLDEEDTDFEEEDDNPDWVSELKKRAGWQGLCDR
Briefly: NEK3(h) Eurofins kinase panel. The following applies: Compound concentration 1.0 uM.

Experiment [2] concerns the target Ribosomal protein S6 kinase beta-1 (Homo sapiens) (UniProt P23443). The experiment is described as follows: p70S6K(h) Eurofins kinase panel. The conditions noted are these: Compound concentration 1.0 uM.
The target in experiment [3] is T2, Protein kinase C epsilon type (Homo sapiens) (UniProt Q02156).
T2 sequence (whole entry): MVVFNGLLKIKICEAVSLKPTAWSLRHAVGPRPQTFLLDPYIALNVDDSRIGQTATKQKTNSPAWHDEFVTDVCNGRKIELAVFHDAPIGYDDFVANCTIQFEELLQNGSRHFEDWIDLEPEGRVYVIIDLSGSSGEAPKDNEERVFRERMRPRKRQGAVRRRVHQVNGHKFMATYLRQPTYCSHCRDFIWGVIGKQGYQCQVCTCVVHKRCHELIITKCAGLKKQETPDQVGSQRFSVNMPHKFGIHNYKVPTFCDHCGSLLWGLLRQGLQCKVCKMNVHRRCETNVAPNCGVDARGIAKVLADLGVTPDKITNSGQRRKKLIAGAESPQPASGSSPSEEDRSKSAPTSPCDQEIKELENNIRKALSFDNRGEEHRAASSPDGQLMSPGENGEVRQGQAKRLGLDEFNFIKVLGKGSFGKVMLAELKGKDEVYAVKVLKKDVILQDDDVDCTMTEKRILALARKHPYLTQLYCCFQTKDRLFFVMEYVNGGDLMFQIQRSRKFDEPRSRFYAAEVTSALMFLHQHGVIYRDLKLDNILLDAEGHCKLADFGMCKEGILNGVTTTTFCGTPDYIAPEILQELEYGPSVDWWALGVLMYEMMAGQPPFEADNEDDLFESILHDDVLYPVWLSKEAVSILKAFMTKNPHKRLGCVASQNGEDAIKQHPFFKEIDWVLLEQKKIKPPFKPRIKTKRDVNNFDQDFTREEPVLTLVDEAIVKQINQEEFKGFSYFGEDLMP
Briefly: PKCepsilon (h) Eurofins kinase panel. The conditions noted are these: Compound concentration 1.0 uM.

Experiment [4] has as its target Ribosomal protein S6 kinase alpha-1 (Homo sapiens, UniProt Q15418). The following applies: Compound concentration 1.0 uM.
Experiment [5] has as its target T3, Ephrin type-B receptor 2 (Homo sapiens) (UniProt P29323).
T3 sequence (whole entry): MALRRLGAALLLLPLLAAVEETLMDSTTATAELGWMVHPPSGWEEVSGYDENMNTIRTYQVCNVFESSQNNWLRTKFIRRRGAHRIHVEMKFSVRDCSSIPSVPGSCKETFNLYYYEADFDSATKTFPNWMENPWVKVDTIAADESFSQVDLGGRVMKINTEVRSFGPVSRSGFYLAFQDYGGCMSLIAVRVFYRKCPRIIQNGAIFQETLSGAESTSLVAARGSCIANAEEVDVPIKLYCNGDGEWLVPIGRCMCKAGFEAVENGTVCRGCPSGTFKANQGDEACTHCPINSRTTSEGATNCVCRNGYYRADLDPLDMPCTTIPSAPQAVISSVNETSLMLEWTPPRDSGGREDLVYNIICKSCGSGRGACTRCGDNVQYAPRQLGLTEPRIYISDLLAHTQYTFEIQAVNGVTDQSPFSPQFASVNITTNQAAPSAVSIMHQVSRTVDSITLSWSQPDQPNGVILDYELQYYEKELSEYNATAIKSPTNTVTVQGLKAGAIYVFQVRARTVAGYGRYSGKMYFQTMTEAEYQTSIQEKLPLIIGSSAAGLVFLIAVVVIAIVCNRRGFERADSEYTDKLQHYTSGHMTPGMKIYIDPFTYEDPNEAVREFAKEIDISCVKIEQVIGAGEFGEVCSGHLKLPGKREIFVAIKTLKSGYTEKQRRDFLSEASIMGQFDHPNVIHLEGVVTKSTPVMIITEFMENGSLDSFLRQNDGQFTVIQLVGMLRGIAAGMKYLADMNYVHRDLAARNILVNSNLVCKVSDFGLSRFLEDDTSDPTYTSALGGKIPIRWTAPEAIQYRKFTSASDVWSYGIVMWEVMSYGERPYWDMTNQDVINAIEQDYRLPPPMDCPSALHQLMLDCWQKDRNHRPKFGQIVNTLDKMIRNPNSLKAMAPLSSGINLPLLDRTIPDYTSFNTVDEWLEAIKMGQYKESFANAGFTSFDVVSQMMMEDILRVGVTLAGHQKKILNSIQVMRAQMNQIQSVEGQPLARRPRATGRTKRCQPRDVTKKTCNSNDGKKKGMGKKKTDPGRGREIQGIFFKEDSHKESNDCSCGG
Briefly: EphB2(h) Eurofins kinase panel. The following applies: Compound concentration 1.0 uM.

Experiment [6] has as its target cAMP-dependent protein kinase catalytic subunit beta (Homo sapiens) (UniProt P22694). Briefly: PKAcβ(h) Eurofins kinase panel. The conditions noted are these: Compound concentration 1.0 uM.
A further experiment relates to JJN-3. Briefly: JJN3 cell line Proliferation assay. The following applies: time 3 day. Format: functional, Homo sapiens.
Experiment [7] deals with Cyclin-dependent kinase 5/CDK5 activator 1 (Homo sapiens) (UniProt Q00535+Q15078). The experiment is described as follows: CDK5/p35(h) Eurofins kinase panel. The experiment is classed as protein-complex assay. The conditions noted are these: Compound concentration 1.0 uM.
Chain of Cyclin-dependent kinase 5/CDK5 activator 1 (Homo sapiens) (Q00535 whole entry): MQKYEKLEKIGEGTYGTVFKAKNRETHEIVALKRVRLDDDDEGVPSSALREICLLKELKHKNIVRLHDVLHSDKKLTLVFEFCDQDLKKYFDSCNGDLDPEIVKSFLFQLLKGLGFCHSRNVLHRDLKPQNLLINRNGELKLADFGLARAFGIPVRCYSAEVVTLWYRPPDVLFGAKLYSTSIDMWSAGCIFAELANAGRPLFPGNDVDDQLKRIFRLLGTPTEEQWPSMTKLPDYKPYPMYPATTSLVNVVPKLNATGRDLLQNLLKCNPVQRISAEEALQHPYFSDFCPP
Chain of Cyclin-dependent kinase 5/CDK5 activator 1 (Homo sapiens) (Q15078 99-307 partner limits assumed): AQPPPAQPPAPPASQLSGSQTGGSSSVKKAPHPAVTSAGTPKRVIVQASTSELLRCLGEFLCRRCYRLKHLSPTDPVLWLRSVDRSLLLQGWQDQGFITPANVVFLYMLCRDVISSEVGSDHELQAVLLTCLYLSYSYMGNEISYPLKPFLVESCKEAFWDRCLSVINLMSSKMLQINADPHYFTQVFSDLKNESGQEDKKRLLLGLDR
For experiment [8], the target named is Death-associated protein kinase 3 (Homo sapiens) (UniProt O43293). Briefly: ZIPK(h) Eurofins kinase panel. The following applies: Compound concentration 1.0 uM.
Chain of Death-associated protein kinase 3 (Homo sapiens) (O43293 whole entry, looked up): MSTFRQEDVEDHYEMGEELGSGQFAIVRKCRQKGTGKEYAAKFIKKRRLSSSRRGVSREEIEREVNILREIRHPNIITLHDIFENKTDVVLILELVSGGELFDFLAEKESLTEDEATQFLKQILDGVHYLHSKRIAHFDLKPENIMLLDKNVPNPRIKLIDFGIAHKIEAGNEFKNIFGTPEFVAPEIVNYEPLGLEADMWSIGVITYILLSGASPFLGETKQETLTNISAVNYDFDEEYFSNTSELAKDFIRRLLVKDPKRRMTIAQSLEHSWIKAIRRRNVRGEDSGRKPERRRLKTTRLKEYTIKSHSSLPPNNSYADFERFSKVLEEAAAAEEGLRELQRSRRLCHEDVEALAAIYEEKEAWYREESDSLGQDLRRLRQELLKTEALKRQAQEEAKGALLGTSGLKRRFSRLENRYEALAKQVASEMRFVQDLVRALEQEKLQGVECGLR
The target in experiment [9] is TRAF2 and NCK-interacting protein kinase (Homo sapiens) (UniProt Q9UKE5). The experiment is described as follows: TNIK(h) Eurofins kinase panel. The following applies: Compound concentration 1.0 uM.
Chain of TRAF2 and NCK-interacting protein kinase (Homo sapiens) (Q9UKE5 whole entry, looked up): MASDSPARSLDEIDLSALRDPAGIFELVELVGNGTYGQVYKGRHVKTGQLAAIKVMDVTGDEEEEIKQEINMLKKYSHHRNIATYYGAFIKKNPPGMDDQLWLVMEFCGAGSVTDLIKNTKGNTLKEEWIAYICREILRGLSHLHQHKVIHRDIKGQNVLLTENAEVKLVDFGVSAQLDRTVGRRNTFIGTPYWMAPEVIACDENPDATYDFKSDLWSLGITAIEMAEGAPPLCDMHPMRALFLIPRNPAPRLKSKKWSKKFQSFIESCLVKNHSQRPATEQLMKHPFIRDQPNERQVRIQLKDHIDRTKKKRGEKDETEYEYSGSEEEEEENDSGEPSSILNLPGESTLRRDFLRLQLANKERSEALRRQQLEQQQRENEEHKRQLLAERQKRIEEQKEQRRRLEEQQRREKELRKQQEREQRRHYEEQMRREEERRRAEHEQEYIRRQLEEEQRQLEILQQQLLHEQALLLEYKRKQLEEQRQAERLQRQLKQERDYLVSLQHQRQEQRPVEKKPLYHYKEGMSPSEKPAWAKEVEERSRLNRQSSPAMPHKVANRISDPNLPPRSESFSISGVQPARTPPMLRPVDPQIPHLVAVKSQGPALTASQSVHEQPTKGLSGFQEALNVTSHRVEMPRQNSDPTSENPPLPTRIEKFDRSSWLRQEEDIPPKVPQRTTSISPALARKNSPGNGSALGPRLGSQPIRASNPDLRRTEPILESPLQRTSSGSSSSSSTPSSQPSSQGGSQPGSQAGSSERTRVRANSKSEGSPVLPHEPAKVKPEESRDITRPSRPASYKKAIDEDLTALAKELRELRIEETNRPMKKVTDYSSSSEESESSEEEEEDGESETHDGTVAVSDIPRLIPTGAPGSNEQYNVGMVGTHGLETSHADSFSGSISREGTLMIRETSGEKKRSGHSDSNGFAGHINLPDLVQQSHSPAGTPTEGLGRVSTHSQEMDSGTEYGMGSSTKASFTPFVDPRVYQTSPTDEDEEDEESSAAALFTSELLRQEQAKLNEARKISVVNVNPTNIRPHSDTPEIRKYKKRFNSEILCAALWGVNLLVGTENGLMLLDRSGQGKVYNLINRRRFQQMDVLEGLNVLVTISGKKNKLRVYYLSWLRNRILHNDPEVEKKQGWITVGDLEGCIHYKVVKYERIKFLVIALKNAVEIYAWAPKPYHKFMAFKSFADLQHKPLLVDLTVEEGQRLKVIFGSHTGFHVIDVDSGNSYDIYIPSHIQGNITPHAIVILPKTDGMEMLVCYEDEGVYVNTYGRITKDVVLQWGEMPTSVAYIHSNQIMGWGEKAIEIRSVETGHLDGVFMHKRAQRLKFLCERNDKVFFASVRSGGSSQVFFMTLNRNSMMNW
Experiment [10] has as its target Calcium/calmodulin-dependent protein kinase kinase 1 (Homo sapiens) (UniProt Q8N5S9). Briefly: CaMKK1(h) Eurofins kinase panel. The conditions noted are these: Compound concentration 1.0 uM.
Experiment [11] addresses Tyrosine-protein kinase CSK (Homo sapiens) (UniProt P41240). The experiment is described as follows: CSK(h) Eurofins kinase panel. The conditions noted are these: Compound concentration 1.0 uM.
The target of experiment [12] is Insulin receptor-related protein (Homo sapiens) (UniProt P14616). The experiment is described as follows: IRR(h) Eurofins kinase panel. The conditions noted are these: Compound concentration 1.0 uM.
Experiment [13] addresses Eukaryotic translation initiation factor 2-alpha kinase 3 (Homo sapiens) (UniProt Q9NZJ5). Briefly: PEK(h) Eurofins kinase panel. The following applies: Compound concentration 1.0 uM.
The target of experiment [14] is Protein kinase C delta type (Homo sapiens) (UniProt Q05655). The experiment is described as follows: PKCdelta (h) Eurofins kinase panel. The conditions noted are these: Compound concentration 1.0 uM.
Chain of Protein kinase C delta type (Homo sapiens) (Q05655 whole entry, looked up): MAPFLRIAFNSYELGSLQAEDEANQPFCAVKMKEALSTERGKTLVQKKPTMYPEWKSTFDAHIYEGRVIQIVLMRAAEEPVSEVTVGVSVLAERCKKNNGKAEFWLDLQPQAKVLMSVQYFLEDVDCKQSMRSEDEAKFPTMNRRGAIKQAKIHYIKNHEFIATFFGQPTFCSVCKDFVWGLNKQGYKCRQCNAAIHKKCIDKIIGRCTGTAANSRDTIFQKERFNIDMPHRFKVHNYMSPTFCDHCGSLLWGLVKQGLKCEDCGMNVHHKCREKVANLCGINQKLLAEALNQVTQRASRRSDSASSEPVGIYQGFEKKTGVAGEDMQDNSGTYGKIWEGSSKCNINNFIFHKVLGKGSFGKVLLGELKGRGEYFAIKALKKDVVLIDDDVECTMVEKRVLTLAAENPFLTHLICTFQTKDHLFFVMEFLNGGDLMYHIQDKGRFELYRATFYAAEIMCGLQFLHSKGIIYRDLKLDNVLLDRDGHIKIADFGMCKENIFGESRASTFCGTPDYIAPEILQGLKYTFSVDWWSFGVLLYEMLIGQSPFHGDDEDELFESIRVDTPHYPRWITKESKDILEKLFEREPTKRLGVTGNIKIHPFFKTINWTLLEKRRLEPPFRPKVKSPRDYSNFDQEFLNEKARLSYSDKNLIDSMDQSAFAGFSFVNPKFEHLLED
Experiment [15] addresses Wee1-like protein kinase 2 (Homo sapiens) (UniProt P0C1S8). Briefly: Wee1B(h) Eurofins kinase panel. The conditions noted are these: Compound concentration 1.0 uM.

The results in this text go back to ChEMBL document CHEMBL4507319 (2021).

Chain of Ribosomal protein S6 kinase alpha-1 (Q15418 whole entry): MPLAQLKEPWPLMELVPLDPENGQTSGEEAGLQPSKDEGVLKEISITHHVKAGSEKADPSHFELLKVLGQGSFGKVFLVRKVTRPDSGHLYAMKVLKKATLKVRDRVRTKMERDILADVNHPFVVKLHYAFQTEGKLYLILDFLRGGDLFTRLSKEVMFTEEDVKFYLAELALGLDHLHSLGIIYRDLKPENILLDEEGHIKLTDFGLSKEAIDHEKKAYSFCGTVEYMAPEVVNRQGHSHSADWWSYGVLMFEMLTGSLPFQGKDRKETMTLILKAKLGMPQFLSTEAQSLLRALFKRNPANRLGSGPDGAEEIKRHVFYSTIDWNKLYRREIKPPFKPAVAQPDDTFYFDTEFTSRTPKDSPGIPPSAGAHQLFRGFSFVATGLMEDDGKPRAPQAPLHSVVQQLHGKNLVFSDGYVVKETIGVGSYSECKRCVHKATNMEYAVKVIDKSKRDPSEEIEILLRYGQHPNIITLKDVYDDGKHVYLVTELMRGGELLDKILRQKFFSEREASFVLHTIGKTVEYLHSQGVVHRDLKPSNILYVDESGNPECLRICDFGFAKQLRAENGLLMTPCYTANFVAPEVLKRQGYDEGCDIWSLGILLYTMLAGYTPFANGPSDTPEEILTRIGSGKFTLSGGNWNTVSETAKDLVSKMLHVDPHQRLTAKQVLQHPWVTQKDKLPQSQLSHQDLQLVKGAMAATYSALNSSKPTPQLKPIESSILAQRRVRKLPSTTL
Chain of Ribosomal protein S6 kinase beta-1 (Homo sapiens) (P23443 whole entry, looked up): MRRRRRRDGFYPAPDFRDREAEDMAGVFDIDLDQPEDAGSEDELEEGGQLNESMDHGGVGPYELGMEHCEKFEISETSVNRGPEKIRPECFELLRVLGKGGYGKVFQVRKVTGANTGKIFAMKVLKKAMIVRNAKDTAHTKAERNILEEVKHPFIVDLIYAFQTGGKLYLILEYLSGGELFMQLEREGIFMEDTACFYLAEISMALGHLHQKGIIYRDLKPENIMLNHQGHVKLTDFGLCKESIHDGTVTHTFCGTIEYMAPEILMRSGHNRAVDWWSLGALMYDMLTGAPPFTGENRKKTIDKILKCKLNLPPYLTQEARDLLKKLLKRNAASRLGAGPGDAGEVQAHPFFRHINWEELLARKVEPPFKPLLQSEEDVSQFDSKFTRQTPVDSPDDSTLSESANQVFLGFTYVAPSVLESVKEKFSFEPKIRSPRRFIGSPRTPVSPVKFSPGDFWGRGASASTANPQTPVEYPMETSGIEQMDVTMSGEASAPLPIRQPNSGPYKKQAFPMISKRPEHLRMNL
Chain of Wee1-like protein kinase 2 (Homo sapiens) (P0C1S8 whole entry, looked up): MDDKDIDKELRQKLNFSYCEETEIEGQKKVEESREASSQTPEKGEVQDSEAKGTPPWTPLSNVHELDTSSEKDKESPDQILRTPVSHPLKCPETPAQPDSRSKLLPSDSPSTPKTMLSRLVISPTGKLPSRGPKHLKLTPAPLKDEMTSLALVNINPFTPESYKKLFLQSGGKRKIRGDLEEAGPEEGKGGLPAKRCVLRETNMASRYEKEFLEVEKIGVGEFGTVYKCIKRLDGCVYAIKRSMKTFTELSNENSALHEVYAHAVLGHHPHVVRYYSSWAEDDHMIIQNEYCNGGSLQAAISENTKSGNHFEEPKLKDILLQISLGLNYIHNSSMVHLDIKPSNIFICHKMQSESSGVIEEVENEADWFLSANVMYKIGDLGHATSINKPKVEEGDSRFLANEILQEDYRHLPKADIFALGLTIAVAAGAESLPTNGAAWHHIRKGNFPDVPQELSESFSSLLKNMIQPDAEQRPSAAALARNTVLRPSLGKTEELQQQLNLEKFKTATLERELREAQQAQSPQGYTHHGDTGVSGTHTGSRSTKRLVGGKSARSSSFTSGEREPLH

As to `CCc1ccccc1C(=O)Nc1n[nH]c2c(C)c(F)c(C3C(C#N)=C(C)N(C)C(C)=C3C#N)cc12` [BAY-3827], the % residual kinase activity in [1] is 102%; in [2], 76%; in [3] it was 62%; in [4] it was 7%; in [5] it was 98%; in experiment [6], 90%. Further, the % residual kinase activity in experiment [7] was 99%; in [8], 91%; in experiment [9] it was 49%; in experiment [10], 95%; in [11] it was 90%; in experiment [12], 101%. Further, the % residual kinase activity in experiment [13] was 101%; in experiment [14], 69%; in [15] it was 101%. For the same molecule, the “Cell Proliferation IC50” value with JJN-3 is greater than 20 µM.
